Values joined by “and” are separate entries in the source; they are usually repeats but may differ in a detail not shown here. Identical values can stand only once.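 Following 48 hours of exposure in 96-well plates, responses at five concentrations were used to interpolate endpoints linearly. The concentration for 50% growth inhibition is given as GI50. TGI denotes the concentration required for complete inhibition of growth.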
Tests used:
Assay in all cases: NCI tumour cell line growth inhibition, 48 h
P388/ADR leukemia = system: P388/ADR leukemia
HOP-18 NSCLC = system: HOP-18 NSCLC
MDA-MB-435 = system: MDA-MB-435
DLD-1 colon = system: DLD-1 colon
P388 leukemia = system: P388 leukemia
SN12K1 renal = system: SN12K1 renal
NCI/ADR-RES ovarian = system: NCI/ADR-RES ovarian
XF 498 CNS = system: XF 498 CNS
MDA-N = system: MDA-N
RXF-631 renal = system: RXF-631 renal
LXFL 529 NSCLC = system: LXFL 529 NSCLC

Row | Compound | TGI (P388/ADR leukemia) [µM] | TGI (HOP-18 NSCLC) [µM] | GI50 (MDA-MB-435) [µM] | TGI (MDA-MB-435) [µM] | TGI (DLD-1 colon) [µM] | TGI (P388 leukemia) [µM] | TGI (SN12K1 renal) [µM] | TGI (NCI/ADR-RES ovarian) | GI50 (XF 498 CNS) [µM] | TGI (XF 498 CNS) | GI50 (DLD-1 colon) [µM] | GI50 (MDA-N) [µM] | TGI (MDA-N) [µM] | GI50 (NCI/ADR-RES ovarian) [µM] | TGI (RXF-631 renal) [µM] | TGI (LXFL 529 NSCLC) [µM]
1 | Nc1nc(Cl)nc2c1ncn2C1CC(O)C(CO)O1 (configuration not stated) | > 100 | > 100 | 0.54 | > 100 | > 100 | 0.498 | > 24.9 | > 100 µM |  |  |  |  |  |  |  | 
2 | NC(=S)N/N=C/c1ncccc1O | > 1000 | 141 | 1.33 | > 471 | > 774 | 1.26 | 13.7 | 38 µM and 6.56 µM | 4.88 | 39.7 µM and 5.52 µM | 3.79 | 1.9 | > 853 | 2.21 |  | 
3 | CCOC(=O)C(Br)=C1OC(=O)c2ccccc2-c2ccccc21 (mixture of isomers) |  | 51.4 |  |  | 36.4 |  |  |  |  | 38.5 µM |  |  |  |  | 49.9 | 26.5
4 | CCCCCCCCc1cc2c(O)c(c1)Cc1cc(CCCCCCCC)cc(c1O)Cc1cc(CCCCCCCC)cc(c1O)Cc1cc(CCCCCCCC)cc(c1O)Cc1cc(CCCCCCCC)cc(c1O)Cc1cc(CCCCCCCC)cc(c1O)C2 |  | > 100 |  |  | > 100 |  |  |  |  | > 100 µM |  |  |  |  | > 100 | > 100

— PubChem BioAssay (NCI)
